Assay results: PubChem BioAssay (NCI)
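Each compound was tested at five concentrations against cells in 96-well plates for 48 hours. TGI: total growth inhibition.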

Experiments:
Test in all cases: NCI tumour cell line growth inhibition, 48 h
OVCAR-8 ovarian = system: OVCAR-8 ovarian
SNB-75 CNS = system: SNB-75 CNS
NCI-H226 lung = system: NCI-H226 lung
786-0 renal = system: 786-0 renal
OVCAR-4 ovarian = system: OVCAR-4 ovarian
CCRF-CEM leukemia = system: CCRF-CEM leukemia
MOLT-4 leukemia = system: MOLT-4 leukemia
UACC-62 melanoma = system: UACC-62 melanoma
A498 renal = system: A498 renal
MDA-MB-231 breast = system: MDA-MB-231 breast
NCI-H23 lung = system: NCI-H23 lung
SK-MEL-2 melanoma = system: SK-MEL-2 melanoma
HS 578T breast = system: HS 578T breast
OVCAR-3 ovarian = system: OVCAR-3 ovarian
HCC-2998 colon = system: HCC-2998 colon
PC-3 prostate = system: PC-3 prostate
OVCAR-5 ovarian = system: OVCAR-5 ovarian
SNB-19 CNS = system: SNB-19 CNS
SK-OV-3 ovarian = system: SK-OV-3 ovarian
UO-31 renal = system: UO-31 renal
NCI-H460 lung = system: NCI-H460 lung
ACHN renal = system: ACHN renal
MDA-N = system: MDA-N
HOP-92 NSCLC = system: HOP-92 NSCLC
RXF 393 renal = system: RXF 393 renal
MCF7 breast = system: MCF7 breast
M14 melanoma = system: M14 melanoma
U251 CNS = system: U251 CNS
MDA-MB-435 = system: MDA-MB-435
HCT-116 colon = system: HCT-116 colon
A549 NSCLC = system: A549 NSCLC
HCT-15 colon = system: HCT-15 colon
HL-60(TB) leukemia = system: HL-60(TB) leukemia
CAKI-1 renal = system: CAKI-1 renal
RPMI-8226 leukemia = system: RPMI-8226 leukemia
BT-549 breast = system: BT-549 breast
SK-MEL-28 melanoma = system: SK-MEL-28 melanoma
SF-295 CNS = system: SF-295 CNS
UACC-257 melanoma = system: UACC-257 melanoma
KM12 colon = system: KM12 colon
SF-539 CNS = system: SF-539 CNS
SW-620 colon = system: SW-620 colon
T-47D breast = system: T-47D breast
DU-145 prostate = system: DU-145 prostate
COLO 205 colon = system: COLO 205 colon
K-562 leukemia = system: K-562 leukemia
TK-10 renal = system: TK-10 renal
SK-MEL-5 melanoma = system: SK-MEL-5 melanoma
HT29 colon = system: HT29 colon
SN12C renal = system: SN12C renal
NCI/ADR-RES ovarian = system: NCI/ADR-RES ovarian
SF-268 CNS = system: SF-268 CNS
LOX IMVI melanoma = system: LOX IMVI melanoma
HOP-62 NSCLC = system: HOP-62 NSCLC

Measured: TGI

COc1ccccc1-c1n[nH]c(-c2ccccc2O)n1
> 100 µM: all assays above
